Results taken from ChEMBL document CHEMBL5032511, “Improving Druggability of Novel Diarylpyrimidine NNRTIs by a Fragment-Based Replacement Strategy: From Biphenyl-DAPYs to Heteroaromatic-Biphenyl-DAPYs” (J Med Chem, 2021).

How the values were obtained:
[1] = Stability in mouse liver microsome assessed as half life at 1 uM in presence of NADPH by LC/MS/MS analysis; type: ADME; details: liver microsomes
[2] = Stability in human liver microsome assessed as binding constant at 1 uM in presence of NADPH by LC/MS/MS analysis; details: microsomes
[3] = Stability in rat liver microsome assessed as binding constant at 1 uM in presence of NADPH by LC/MS/MS analysis; details: microsomes
[4] = Stability in mouse liver microsome assessed as binding constant at 1 uM in presence of NADPH by LC/MS/MS analysis; type: ADME; details: microsomes
[5] = Intrinsic clearance in mouse liver microsome at 1 uM in presence of NADPH by LC/MS/MS analysis; type: ADME; details: liver microsomes, read-out: CLH
[6] = Acute toxicity in fasted mouse assessed as mouse death at 2 g/Kg, IG; details: in vivo, po, 2000 mg/kg
[7] = Acute toxicity in fasted mouse assessed as weight loss at 2 g/Kg, IG upto 2 weeks; details: in vivo, po, 2000 mg/kg, 336 h
[8] = Acute toxicity in fasted mouse assessed as behavioral changes at 2 g/Kg, IG upto 2 weeks; details: in vivo, po, 2000 mg/kg, 336 h
[9] = Acute toxicity in fasted mouse assessed as pathological changes in brain at 2 g/Kg, IG upto 2 weeks after 14 days by H and E staining based analysis; type: tissue-based; details: in vivo, po, 2000 mg/kg, 336 h
[10] = Acute toxicity in fasted mouse assessed as pathological changes in heart at 2 g/Kg, IG upto 2 weeks after 14 days by H and E staining based analysis; type: tissue-based; details: in vivo, po, 2000 mg/kg, 336 h
[11] = Acute toxicity in fasted mouse assessed as pathological changes in liver at 2 g/Kg, IG upto 2 weeks after 14 days by H and E staining based analysis; type: tissue-based; details: in vivo, po, 2000 mg/kg, 336 h
[12] = Acute toxicity in fasted mouse assessed as pathological changes in spleen at 2 g/Kg, IG upto 2 weeks after 14 days by H and E staining based analysis; type: tissue-based; details: in vivo, po, 2000 mg/kg, 336 h
[13] = Acute toxicity in fasted mouse assessed as pathological changes in lung at 2 g/Kg, IG upto 2 weeks after 14 days by H and E staining based analysis; type: tissue-based; details: in vivo, po, 2000 mg/kg, 336 h
[14] = Acute toxicity in fasted mouse assessed as pathological changes in kidney at 2 g/Kg, IG upto 2 weeks after 14 days by H and E staining based analysis; type: tissue-based; details: in vivo, po, 2000 mg/kg, 336 h
[15] = Clearance in Sprague-Dawley rat at 1 mg/kg, iv; type: ADME, organism-based; details: in vivo
[16] = Oral bioavailability in Sprague-Dawley rat at 5 mg/kg by LCMS analysis; type: ADME, organism-based; details: in vivo
[17] = AUC (all) in Sprague-Dawley rat at 5 mg/kg, po by LCMS analysis; type: ADME, organism-based; set-up: dose 5 mg/kg; details: in vivo
[18] = AUC (all) in Sprague-Dawley rat at 1 mg/kg, iv by LCMS analysis; type: ADME, organism-based; set-up: dose 1 mg/kg; details: in vivo
[19] = AUC (infinity) in Sprague-Dawley rat at 5 mg/kg, po by LCMS analysis; type: ADME, organism-based; set-up: route oral, time infinity, dose 5 mg/kg; details: in vivo
[20] = AUC (infinity) in Sprague-Dawley rat at 1 mg/kg, iv by LCMS analysis; type: ADME, organism-based; set-up: route intravenous, time infinity, dose 1 mg/kg; details: in vivo
[21] = MRT (infinity) in Sprague-Dawley rat at 5 mg/kg, po by LCMS analysis; type: ADME, organism-based; details: in vivo
[22] = MRT (infinity) in Sprague-Dawley rat at 1 mg/kg, iv by LCMS analysis; type: ADME, organism-based; details: in vivo
[23] = Half life in Sprague-Dawley rat at 5 mg/kg, po by LCMS analysis; type: ADME, organism-based; details: in vivo
[24] = Half life in Sprague-Dawley rat at 1 mg/kg, iv by LCMS analysis; type: ADME, organism-based; details: in vivo
[25] = Tmax in Sprague-Dawley rat at 5 mg/kg, po by LCMS analysis; type: ADME, organism-based; details: in vivo
[26] = Cmax in Sprague-Dawley rat at 1 mg/kg, iv by LCMS analysis; type: ADME, organism-based; set-up: route intravenous, dose 1 mg/kg; details: in vivo
in vitro [27] = details: rat, liver microsomes
in vitro [28] = details: human, liver microsomes
in vitro [29] = details: rat, liver microsomes; remark: listed apart in the source
in vitro [30] = details: human, liver microsomes; remark: listed apart in the source

Compound: Cl.N#Cc1ccc(Nc2nccc(Nc3c(F)cc(-c4ccncc4)cc3F)n2)cc1
- half-life at 1 µM [1]: 27 min
- K [2]: 0.0142 min⁻¹
- K [3]: 0.0215 min⁻¹
- K [4]: 0.0259 min⁻¹
- microsomal CLint at 1 µM [5]: 52 µL/min/mg
- Activity [6]: Non-Toxic
- Activity [7]: Non-Toxic
- Activity [8]: Non-Toxic
- Activity [9]: Non-Toxic
- Activity [10]: Non-Toxic
- Activity [11]: Non-Toxic
- Activity [12]: Non-Toxic
- Activity [13]: Non-Toxic
- Activity [14]: Non-Toxic
- clearance [15]: 32 mL/min/kg
- bioavailability [16]: 126%
- AUC [17]: 3340 ng·h/mL
- AUC [18]: 526 ng·h/mL
- AUC(0-inf) [19]: 3350 ng·h/mL
- AUC(0-inf) [20]: 531 ng·h/mL
- MRT inf [21]: 101 min
- MRT inf [22]: 50.4 min
- half-life [23]: 50.4 min
- half-life [24]: 45.6 min
- Tmax [25]: 34.8 min
- Cmax [26]: 1370 ng/mL
- half-life at 1 µM (in vitro [27]): 32 min
- half-life at 1 µM (in vitro [28]): 49 min
- microsomal CLint at 1 µM (in vitro [29]): 43 µL/min/mg
- microsomal CLint at 1 µM (in vitro [30]): 28 µL/min/mg
